Results reported in patent US11224609B2, “Mithramycin derivatives having increased selectivity and anti-cancer activity” (University of Kentucky Research Foundation, priority 2017, dated 2022).
Values joined by “and” are separate entries in the source; they are usually repeats but may differ in a detail not shown here. Equal entries are not always repeated.

What was measured:
[1] = tested on: prostate cell lines lacking TMPRSS2-ERG; assay: Median GI50 in prostate cell lines lacking TMPRSS2-ERG; settings: read-out: Median GI50 in prostate cell lines, lacking TMPRSS2-ERG; unit inferred
HeLa cells = assay: 72 h GI50 assay in HeLa; settings: read-out: HeLa GI50; 72 h growth inhibition
[2] = tested on: Ewing sarcoma cell lines (TC-32, 5838, RD-ES, TC-71, A-673, ES-2, ES-7, ES-8); assay: Median GI50 in panel of Ewing sarcoma cell lines; settings: for Ratio of Median GI50 non-Ewing sarcoma:Ewing sarcoma (Selectivity Index): median GI50 non-Ewing panel over Ewing panel; for Selectivity Index ratio Analogues:MTM (1): selectivity index relative to MTM (1); for GI50: read-out: Median GI50 in Ewing sarcoma cell lines, median over 8 Ewing sarcoma cell lines, 72 h
[3] = tested on: RD-ES Ewing sarcoma cells (EWS-FLI1 Type 2); assay: 72 h GI50 assay in RD-ES; settings: read-out: RD-ES EWS-FLI1 Type 2 GI50; 72 h growth inhibition
DU 145 cells = assay: 72 h GI50 assay in DU 145; settings: read-out: DU 145 GI50; 72 h growth inhibition
[4] = tested on: TC-71 Ewing sarcoma cells (EWS-FLI1 Type 1); settings: 72 h growth inhibition
[5] = tested on: ES-7 Ewing sarcoma cells (EWS-FLI1 Type 4); assay: 72 h GI50 assay in ES-7; settings: read-out: ES-7 EWS-FLI1 Type 4 GI50; 72 h growth inhibition
[6] = tested on: ES-8 Ewing sarcoma cells (EWS-FLI1 Type 2); assay: 72 h GI50 assay in ES-8; settings: read-out: ES-8 EWS-FLI1 Type 2 GI50; 72 h growth inhibition
LNCaP cells = assay: 72 h GI50 assay in LNCaP; settings: read-out: LNCaP GI50; 72 h growth inhibition
[7] = tested on: ES-2 Ewing sarcoma cells (EWS-FLI1 Type 3); assay: 72 h GI50 assay in ES-2; settings: read-out: ES-2 EWS-FLI1 Type 3 GI50; 72 h growth inhibition
A549 cells = assay: 72 h GI50 assay in A549; settings: read-out: A549 GI50; 72 h growth inhibition
[8] = tested on: A-673 Ewing sarcoma cells (EWS-FLI1 Type 1); assay: 72 h GI50 assay in A-673; settings: read-out: A-673 EWS-FLI1 Type 1 GI50; 72 h growth inhibition
[9] = tested on: PC-3 (prostate cancer, no ETS translocation) cell line; assay: 72 h growth inhibition (GI50) assay in PC-3; settings: read-out: PC-3 Prostate cancer No ETS Translocation GI50; 72 h growth inhibition, PC-3 cells
PANC-1 cells = assay: 72 h GI50 assay in PANC-1; settings: read-out: PANC-1 GI50; 72 h growth inhibition
[10] = tested on: VCaP prostate cancer cells (TMPRSS2-ERG); assay: 72 h GI50 assay in VCaP; settings: for GI50: read-out: VCaP Prostate Cancer TMPRSS2-ERG GI50, 72 h growth inhibition, VCaP cells; for Ratio of median GI50 Prostate cells lacking TMPRSS2-ERG:VCaP: selectivity for VCaP over other prostate cancer cell lines
HCT 116 cells = assay: 72 h GI50 assay in HCT 116; settings: read-out: HCT 116 GI50; 72 h growth inhibition
DMS 114 cells = assay: 72 h GI50 assay in DMS 114; settings: read-out: DMS 114 GI50; 72 h growth inhibition
[11] = tested on: 5838 Ewing sarcoma cells (EWS-ERG); assay: 72 h GI50 assay in 5838; settings: for GI50: read-out: 5838 Ewing Sarcoma EWS-ERG GI50, 72 h growth inhibition, 5838 cells; for Ratio of median GI50 Non-Ewing sarcoma cell lines (cf Table 3):5838: selectivity for 5838 cells
[12] = tested on: TC-32 (Ewing sarcoma, EWS-FLI1 Type 1) cell line; settings: for TC-32 Ewing sarcoma EWS-FLI1 Type 1 GI50: 72 h growth inhibition, TC-32 cells; for GI50 ratio PC-3:TC-32: selectivity, GI50 in PC-3 over GI50 in TC-32
CMV promoter = CMV promoter luciferase reporter assay in stably transfected TC-32 cells (non-specific control); type: cell-based; settings: 12 h; for CMV promoter driven luciferase signal: treated up to 10 μM
Text: Full-length NR0B1 promoter sequence was PCR amplified using Q5 high-fidelity DNA polymerase (New England Biolabs, Ipswich, Mass.) from genomic DNA of TC-32 cells and cloned into the pGLUC-Basic 2 vector (New England Biolabs, Ipswich, Mass.). XhoI and KpnI restriction sites were incorporated into the primers. After restriction enzyme (New England Biolabs, Ipswich, Mass.) digest and purification by gel electrophoresis, the target amplicon was ligated into the pGLUC-Basic 2 vector using T4 DNA ligase (Thermo Fisher Scientific, Waltham, Mass.). Chemically competent TOP10 E. coli cells were used to propagate vectors under ampicillin selection (100 μg/mL) (Thermo Fisher Scientific, Waltham, Mass.). The resulting vectors were extracted and purified using GeneJET plasmid prep kit (Thermo Fisher Scientific, Waltham, Mass.). The purified vector was transfected into TC-32 cells using lipofectamine 3000 (Thermo Fisher Scientific, Waltham, Mass.) with subsequent G418 selection (1 mg/mL) (VWR, Radnor, Pa.). Separately, TC-32 cells were transfected with pCMV-Red Firefly Vector (Thermo Fisher Scientific, Waltham, Mass.) with subsequent puromycin selection (0.1 mg/mL) (Sigma, St. Louis, Mo.) as a control.
Selected TC-32 cells, expressing either NR0B1 or CMV luciferase reporter vectors, were seeded in clear 96-well plates at a density of 10,000 cells/well. […] After a 12 h treatment, media was removed and cells were washed 3 times with DPBS (Thermo Fisher Scientific, Waltham, Mass.). Cells were directly lysed on a plate shaker for 30 min at room temperature using 100 μL of passive membrane lysis solution. Lysates (80 μL) were transferred to a white luminescence plate. Luciferase substrate, either coelenterazine or D-luciferin (50 μL of 1× solution), for NR0B1 or CMV vectors, respectively, was added in a Glomax 96 microplate luminometer (Promega, Madison, Wis.) and luminescence was immediately measured. Delay before and after injections were set to the default of 0.4 s and a 10 s integration time was used. All reagents used in this assay were from the dual luciferase reporter assay system (Promega, Madison, Wis.). Concurrently, an additional 96 well plate was seeded and treated under the exact same conditions to determine cell viability using resazurin assay. Luminescence results were normalized to cell viability.

SMILES	GI50 (HeLa cells)	Ratio of Median GI50 non-Ewing sarcoma:Ewing sarcoma (Selectivity Index) [2]	Selectivity Index ratio Analogues:MTM (1) [2]	GI50 [3]	GI50 (DU 145 cells)	TC-71 EWS-FLI1 Type 1 GI50 [4]	GI50 [6]	GI50 (LNCaP cells)	GI50 [7]	GI50 (A549 cells)	GI50 [8]	GI50 [9]	GI50 (PANC-1 cells)	GI50 [10]	Ratio of median GI50 Prostate cells lacking TMPRSS2-ERG:VCaP [10]	GI50 (HCT 116 cells)	GI50 (DMS 114 cells)	GI50 [11]	Ratio of median GI50 Non-Ewing sarcoma cell lines (cf Table 3):5838 [11]	TC-32 Ewing sarcoma EWS-FLI1 Type 1 GI50 [12]	other results
COC(=O)C(Cc1cn(C)c2ccccc12)NC(=O)C(OC)C1Cc2cc3cc(OC4CC(OC5CC(O)C(O)C(C)O5)C(O)C(C)O4)c(C)c(O)c3c(O)c2C(=O)C1OC1CC(OC2CC(OC3CC(C)(O)C(O)C(C)O3)C(O)C(C)O2)C(O)C(C)O1 (stereo not shown) [Analogue 45]	1.76 µM	2.4	1.6	0.539 µM	0.761 µM	0.696 µM	1.33 µM	1.86 µM	1.5 µM	2.37 µM	1.01 µM	1.56 µM	1.73 µM	0.307 µM	5.1	0.826 µM	1.05 µM	0.121 µM	13.3	0.139 µM	GI50 [1]: 1560 nM; GI50 [5]: 0.672 µM; fold increase in selectivity ([12]; PC-3:TC-32 selectivity, comparator not stated): ~4 fold; GI50 ratio PC-3:TC-32 [12]: 11.2
C=CCOc1ccc2[nH]cc(CC(NC(=O)C(OC)C3Cc4cc5cc(OC6CC(OC7CC(O)C(O)C(C)O7)C(O)C(C)O6)c(C)c(O)c5c(O)c4C(=O)C3OC3CC(OC4CC(OC5CC(C)(O)C(O)C(C)O5)C(O)C(C)O4)C(O)C(C)O3)C(=O)OC)c2c1 (stereo not shown) [Analogue 51]	1.71 µM	1.1	0.7	0.843 µM	0.298 µM	0.636 µM	0.09 µM	2.23 µM	5.37 µM	1.54 µM	0.272 µM	0.454 µM	0.532 µM	0.485 µM	0.9	0.38 µM	2.84 µM	0.024 µM	22.2	0.053 µM	GI50 [1]: 454 nM; GI50 [2]: 0.485 µM; GI50 [5]: 1.66 µM; GI50 ratio PC-3:TC-32 [12]: 8.6
COC(=O)C(Cc1ccccc1)NC(=O)C(Cc1c[nH]c2ccccc12)NC(=O)C(OC)C1Cc2cc3cc(OC4CC(OC5CC(O)C(O)C(C)O5)C(O)C(C)O4)c(C)c(O)c3c(O)c2C(=O)C1OC1CC(OC2CC(OC3CC(C)(O)C(O)C(C)O3)C(O)C(C)O2)C(O)C(C)O1 (stereo not shown) [Analogue 59, MTMSA-Trp-Phe]	0.397 µM	2.4 and < 3	1.6	0.054 µM	0.067 µM	0.019 µM	0.074 µM	0.697 µM	0.125 µM	1.94 µM	0.238 µM	0.075 µM	0.152 µM	0.021 µM	3.6	0.082 µM	0.018 µM	0.039 µM	3.9	0.037 µM	GI50 [2]: 0.064 µM; GI50 ratio PC-3:TC-32 [12]: 2.0; CMV driven luciferase expression decreased down to (CMV promoter; concentrations between 1 and 10 μM): ~75%; CMV promoter driven luciferase signal (CMV promoter): decreased; CMV promoter driven luciferase signal (CMV promoter; listed as MTMSA-Trp-Phe (59)): reduces
